Test results published in BigSolDB 2.1.

Nc1ccccc1N
solubility (mole fraction)
Conditions | in acetonitrile | in ethanol | in methanol | in water
283.15 K | 0.0558 | 0.0139 | 0.0516 | 0.00447
285.65 K | 0.0595 | 0.0144 | 0.0533 | 0.00467
288.15 K | 0.0643 | 0.0148 | 0.0554 | 0.00495
290.65 K | 0.0685 | 0.0154 | 0.0572 | 0.00517
293.15 K | 0.0752 | 0.016 | 0.0596 | 0.00545
295.65 K | 0.0795 | 0.0165 | 0.0613 | 0.00573
298.15 K | 0.0858 | 0.0172 | 0.0637 | 0.00608
300.65 K | 0.0916 | 0.0177 | 0.0658 | 0.0064
303.15 K | 0.0987 | 0.0184 | 0.0685 | 0.00678
305.65 K | 0.104 | 0.019 | 0.0708 | 0.00717
308.15 K | 0.113 | 0.0199 | 0.0732 | 0.00762
310.65 K | 0.12 | 0.0205 | 0.0758 | 0.00803
313.15 K | 0.128 | 0.0213 | 0.0795 | 0.00855
315.65 K | 0.135 | 0.0221 | 0.0828 | 0.00923
318.15 K | 0.143 | 0.0233 | 0.0868 | 0.0102
